# From patent publication US8822449B2, “Substituted aminoindanes and analogs thereof, and the pharmaceutical use thereof” (Sanofi, priority 2008, dated 2014)
# Biological target: T1, sodium-proton exchanger of subtype 3 (NHE3) (Homo sapiens, UniProt P48764)
# T1 construct: expressed in transfected cells
# T1 sequence (P48764 26-834): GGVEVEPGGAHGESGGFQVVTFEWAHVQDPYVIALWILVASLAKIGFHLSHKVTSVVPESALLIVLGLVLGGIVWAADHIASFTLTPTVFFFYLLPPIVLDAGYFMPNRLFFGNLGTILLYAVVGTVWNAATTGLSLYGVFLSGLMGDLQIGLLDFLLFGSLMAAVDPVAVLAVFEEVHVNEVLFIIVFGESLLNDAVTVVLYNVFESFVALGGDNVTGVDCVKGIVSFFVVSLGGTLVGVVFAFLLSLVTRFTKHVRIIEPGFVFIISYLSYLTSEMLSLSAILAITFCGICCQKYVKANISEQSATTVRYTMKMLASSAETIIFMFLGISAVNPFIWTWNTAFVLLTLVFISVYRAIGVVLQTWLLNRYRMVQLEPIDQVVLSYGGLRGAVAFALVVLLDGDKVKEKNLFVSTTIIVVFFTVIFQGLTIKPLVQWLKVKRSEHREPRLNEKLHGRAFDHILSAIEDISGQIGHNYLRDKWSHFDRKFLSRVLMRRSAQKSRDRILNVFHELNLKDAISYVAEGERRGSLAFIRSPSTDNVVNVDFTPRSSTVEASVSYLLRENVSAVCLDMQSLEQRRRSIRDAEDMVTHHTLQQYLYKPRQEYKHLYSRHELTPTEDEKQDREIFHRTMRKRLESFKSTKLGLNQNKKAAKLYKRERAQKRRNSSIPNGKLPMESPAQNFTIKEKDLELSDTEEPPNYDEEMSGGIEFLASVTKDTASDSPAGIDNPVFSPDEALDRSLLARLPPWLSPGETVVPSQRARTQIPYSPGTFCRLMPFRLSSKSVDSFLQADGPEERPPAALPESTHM
# Assay: Recovery of intracellular pH (pHi) after acidification in LAP1 cells stably expressing NHE3 (BCECF fluorescence, FLIPR)
# Assay type: cell-based
# Settings: LAP1 cells stably expressing NHE3; pH recovery after acidification; range 1 is % inhibition at 10 μM; read-out: Activity range (inhibitory effect on NHE3)
inhibition at 10 µM [%],IC50 [nM],Structure (SMILES)
–,< 1000,"CS(=O)(=O)c1ccc(O[C@H]2c3ccccc3CC[C@@H]2N2CCC[C@@H](N)C2)cc1 (racemic) [Example 73, (R)-1-[rac-trans-(1,2)-1-(4-methanesulfonylphenoxy)-1,2,3,4-tetrahydronaphthalen-2-yl]piperidin-3-ylamine]"
–,1000 to 10000,"N[C@H]1CCCN([C@@H]2Cc3ccccc3[C@H]2Oc2ccc(Br)cc2-c2cc[nH]n2)C1 (racemic) [Example 204, (S)-1-{rac-trans-(1,2)-1-[4-bromo-2-(1H-pyrazol-3-yl)phenoxy]indan-2-yl}piperidin-3-ylamine]"
–,1000 to 10000,"N#Cc1ccc(O[C@@H]2c3ccccc3C[C@H]2N2CCC[C@@H](N)C2)cc1Cl (racemic) [Example 521, 4-[rac-trans-(1,2)-2-((R)-3-aminopiperidin-1-yl)indan-1-yloxy]-2-chlorobenzonitrile]"
–,1000 to 10000,"Cn1ccn(-c2ccc(F)c(O[C@H]3c4cc(Cl)cc(F)c4C[C@@H]3NC3CCCC3)c2)c1=O [Example 756, 1-[3-(trans-(1S,2S)-6-Chloro-2-cyclopentylamino-4-fluoro-indan-1-yloxy)-4-fluoro-phenyl]-3-methyl-1,3-dihydro-imidazol-2-one]"
–,< 1000,"CC(=O)Nc1cccc(O[C@@H]2c3ccccc3C[C@H]2N2CCC[C@@H](N)C2)c1 (racemic) [Example 679, N-{3-[rac-trans-(1,2)-2-((R)-3-aminopiperidin-1-yl)indan-1-yloxy]phenyl}acetamide]"
–,< 1000,"N[C@@H]1CCCN([C@H]2CCc3ccccc3[C@@H]2Oc2ccc(F)c3cccnc23)C1 (racemic) [Example 79, (R)-1-[rac-trans-(1,2)-1-(5-fluoroquinolin-8-yloxy)-1,2,3,4-tetrahydronaphthalen-2-yl]piperidin-3-ylamine]"
20 to 50,–,"COc1ccc(C)cc1O[C@H]1c2ccccc2CC[C@@H]1N1CCC[C@@H](N)C1 (racemic) [Example 46, (R)-1-[rac-trans-(1,2)-1-(2-methoxy-5-methylphenoxy)-1,2,3,4-tetrahydronaphthalen-2-yl]piperidin-3-ylamine]"
–,1000 to 10000,"NS(=O)(=O)c1ccc(O[C@@H]2c3ccccc3C[C@H]2NC2CCCCCC2)c(F)c1 (racemic) [Example 713, 4-(rac-trans-(1,2)-2-Cycloheptylamino-indan-1-yloxy)-3-fluoro-benzenesulfonamide]"
–,1000 to 10000,"NS(=O)(=O)c1ccc(O[C@H]2c3cc(Cl)cc(F)c3C[C@@H]2NC2CCCC2)c(F)c1 [Example 750, 4-(trans-(1S,2S)-6-Chloro-2-cyclopentylamino-4-fluoro-indan-1-yloxy)-3-fluoro-benzenesulfonamide]"
–,< 1000,"NS(=O)(=O)c1ccc(O[C@H]2c3ccccc3C[C@@H]2N2CCCC2)c(Cl)c1 (racemic) [Example 444, 3-chloro-4-(rac-trans-(1,2)-2-pyrrolidin-1-ylindan-1-yloxy)benzenesulfonamide]"
–,1000 to 10000,"Cn1ccn(-c2ccc(O[C@H]3c4cc(Cl)cc(F)c4C[C@@H]3NC3CCCC3)c(F)c2)c1=O [Example 755, 1-[4-(trans-(1S,2S)-6-Chloro-2-cyclopentylamino-4-fluoro-indan-1-yloxy)-3-fluoro-phenyl]-3-methyl-1,3-dihydro-imidazol-2-one]"

# Second part, the compound before the results:
Structure (SMILES),inhibition at 10 µM [%],IC50 [nM]
"COc1cccc(OC)c1O[C@H]1c2ccccc2CC[C@@H]1N1CCC[C@@H](N)C1 (racemic) [Example 34, (R)-1-[rac-trans-(1,2)-1-(2,6-dimethoxyphenoxy)-1,2,3,4-tetrahydronaphthalen-2-yl]piperidin-3-ylamine]",20 to 50,–
"N[C@@H]1CCCN([C@H]2CCc3ccccc3[C@@H]2Oc2cccc3[nH]nnc23)C1 (racemic) [Example 29, (R)-1-[rac-trans-(1,2)-1-(1H-benzotriazol-4-yloxy)-1,2,3,4-tetrahydronaphthalen-2-yl]piperidin-3-ylamine]",–,1000 to 10000
"Cc1c(O[C@H]2c3ccccc3C[C@@H]2N2CCCC2)ccc(-n2c(C)nnc2C)c1C (racemic) [Example 488, 4-[2,3-dimethyl-4-(rac-trans-(1,2)-2-pyrrolidin-1-ylindan-1-yloxy)phenyl]-3,5-dimethyl-4H-[1,2,4]triazole]",–,< 1000
"CC(=O)Nc1cccc(O[C@H]2c3cc(Cl)cc(Cl)c3C[C@@H]2N2CCCC2)c1 (racemic) [Example 648, N-[3-(rac-trans-(1,2)-4,6-dichloro-2-pyrrolidin-1-ylindan-1-yloxy)phenyl]acetamide]",–,1000 to 10000
"C[C@H]1CN([C@H]2Cc3c(Cl)cc(Cl)cc3[C@@H]2Oc2ccc(S(C)(=O)=O)cc2)CCN1 [Example 197, (S)-1-[trans-(1S,2S)-4,6-dichloro-1-(4-methanesulfonylphenoxy)indan-2-yl]-3-methylpiperazine]",–,< 1000
"N[C@@H]1CCCN([C@@H]2Cc3ccccc3[C@H]2Oc2ccc(-n3ccnc3)cc2)C1 (racemic) [Example 72, (R)-1-[rac-trans-(1,2)-1-(4-imidazol-1-ylphenoxy)indan-2-yl]piperidin-3-ylamine]",–,< 1000
"CN1CCN(c2cccc(O[C@H]3c4cc(Cl)cc(Cl)c4C[C@@H]3N3CCNCC3)c2)C1=O (racemic) [Example 258, 1-[3-(rac-trans-(1,2)-4,6-dichloro-2-piperazin-1-ylindan-1-yloxy)phenyl]-3-methylimidazolidin-2-one]",–,< 1000
"N#Cc1ccc(O[C@H]2c3ccccc3CC[C@@H]2N2CCOCC2)cc1F (racemic) [Example 396, 2-fluoro-4-(rac-trans-(1,2)-2-morpholin-4-yl-1,2,3,4-tetrahydronaphthalen-1-yloxy)benzonitrile]",20 to 50,–
"Cc1nnc(C)n1-c1ccc(O[C@H]2c3cc(F)cc(F)c3C[C@@H]2N2CC[C@@H](O)C2)c(F)c1 [Example 110, (R)-1-{(1S,2S)-1-[4-(3,5-dimethyl-[1,2,4]triazol-4-yl)-2-fluorophenoxy]-4,6-difluoroindan-2-yl}pyrrolidin-3-ol]",–,< 1000
"CC(=O)Nc1cccc(O[C@H]2c3cc(F)cc(Cl)c3C[C@@H]2N2CCCC2)c1 (racemic) [Example 651, N-[3-(rac-trans-(1,2)-4-chloro-6-fluoro-2-pyrrolidin-1-ylindan-1-yloxy)phenyl]acetamide]",–,1000 to 10000
"Cc1nnc(C)n1-c1ccc(O[C@H]2c3cc(Cl)cc(Cl)c3C[C@@H]2N2CCCNCC2)c(Cl)c1 [Example 344, 1-{trans-(1S,2S)-4,6-dichloro-1-[2-chloro-4-(3,5-dimethyl-[1,2,4]triazol-4-yl)phenoxy]indan-2-yl}-[1,4]diazepane]",–,< 1000
"CN1CCCN([C@H]2Cc3c(Cl)cc(Cl)cc3[C@@H]2Oc2ccc(S(C)(=O)=O)cc2)CC1 [Example 305, 1-[trans-(1S,2S)-4,6-dichloro-1-(4-methanesulfonylphenoxy)indan-2-yl]-4-methyl-[1,4]diazepane]",–,< 1000
"Brc1ccc(O[C@@H]2c3ccccc3C[C@H]2N2C[C@H]3CNC[C@H]3C2)c(-c2cc[nH]n2)c1 (racemic) [Example 20, 2-{rac-trans-(1,2)-1-[4-bromo-2-(1H-pyrazol-3-yl)phenoxy]indan-2-yl}octahydropyrrolo[3,4-c]pyrrole]",–,1000 to 10000
"O=C1CCCN1c1ccc(Cl)c(O[C@H]2c3cc(Cl)cc(F)c3C[C@@H]2N2CC[C@@H](O)C2)c1 [Example 341, 1-{4-chloro-3-[(1S,2S)-6-chloro-4-fluoro-2-((R)-3-hydroxypyrrolidin-1-yl)indan-1-yloxy]phenyl}pyrrolidin-2-one]",–,< 1000
"c1ccc2c(c1)C[C@@H](N1C[C@H]3CNC[C@H]3C1)[C@@H]2Oc1ccc2ccncc2c1 (racemic) [Example 589, 7-[rac-trans-(1,2)-2-(Hexahydropyrrolo[3,4-c]pyrrol-2-yl)indan-1-yloxy]isoquinoline]",–,1000 to 10000
"CS(=O)(=O)c1ccc(O[C@H]2c3cc(Cl)cc(Cl)c3C[C@@H]2N2CCC[C@@H](NCC#N)C2)cc1 [Example 225, {(R)-1-[trans-(1S,2S)-4,6-dichloro-1-(4-methanesulfonylphenoxy)indan-2-yl]piperidin-3-ylamino}acetonitrile]",–,< 1000
"CC(C)[C@H]1COC(=O)N1c1ccc(F)c(O[C@H]2c3cc(Cl)cc(F)c3C[C@@H]2N2CC[C@@H](O)C2)c1 [Example 210, (S)-3-{3-[(1S,2S)-6-chloro-4-fluoro-2-((R)-3-hydroxypyrrolidin-1-yl)indan-1-yloxy]-4-fluorophenyl}-4-isopropyloxazolidin-2-one]",–,1000 to 10000
"COC[C@@H]1CCCN1[C@H]1Cc2c(Cl)cc(Cl)cc2[C@@H]1Oc1ccc(-n2c(C)nnc2C)cc1 [Example 562, 4-{4-[trans-(1S,2S)-4,6-dichloro-2-((S)-2-methoxymethylpyrrolidin-1-yl)indan-1-yloxy]phenyl}-3,5-dimethyl-4H-[1,2,4]triazole]",–,1000 to 10000
